In data set [1] the test system is Klebsiella pneumoniae (ATCC 10031). Kind of data set: MIC, serial broth dilution. Type of data set: cell-based. The settings on record: ATCC10031, Muller–Hinton broth, 18 h. The protocol: (§1) The MIC of PN159 on the 6 sensitive and resistant ESKAPE pathogenic strains was determined in cation-adjusted Muller–Hinton broth. […] Minimum inhibitory concentrations (MICs) were determined by using a standard serial broth dilution technique. Briefly, 11-step serial dilutions were prepared in 96-well microtiter plates with three biological replicates per strain. Pathogens were inoculated into each well at a density of 5×10^5 bacteria/mL, and the plates were incubated at 37 °C. Plates were shaken at 300 rpm during incubation for 18 h. Cell growth was monitored by measuring the optical density (OD600 value, Synergy 2 microplate reader BioTek Instruments Inc, Winooski, VT, USA). […] As reference compounds we tested the antimicrobial activity of three bactericidal drugs with different modes of action.

Data set [2] deals with Staphylococcus aureus (ATCC 29213). Nature of the data set: MIC, serial broth dilution. Type of data set: cell-based. The settings on record: ATCC29213, Muller–Hinton broth, 18 h. The protocol:
as §1
For orientation: In broth dilution the organism is exposed to a series of concentrations in liquid medium.

The subject of data set [3] is Enterococcus faecium (ATCC 700221). Kind of data set: MIC, serial broth dilution. Type of data set: cell-based. Conditions: ATCC700221, Brain-Heart-Infusion broth, 18 h, vancomycin resistant strain. The protocol:
as §1

Data set [4] has as its system Acinetobacter baumannii (ATCC 17978). Kind of data set: MIC, serial broth dilution. Type of data set: cell-based. Conditions: ATCC17978, Muller–Hinton broth, 18 h. The protocol: as §1
Data set [5] has as its system Enterobacter cloacae spp. cloacae (ATCC 13047). Nature of the data set: microbe, parasite or virus in culture. The settings on record: Enterobacter cloacae, ATCC13047, 18 h. As to the method:
as §1

Data set [6] relates to Pseudomonas aeruginosa (ATCC 27853). Kind of data set: microbe, parasite or virus in culture. The settings on record: Pseudomonas aeruginosa, ATCC27853, 18 h. As to the method:
as §1

The next data set in a line: in vitro. The settings on record: human, Caco-2, Papp A-B. The protocol:
(§2) In the permeability experiments inserts with Caco-2 cell layers grown for 3 weeks were transferred to 12-well plates containing 1.5 mL Ringer–Hepes buffer in the lower (basal or acceptor) compartments. In the upper or apical compartments culture medium was replaced by 0.5 mL buffer containing peptide solutions: PN159 peptide at 1, 3, 10 and 30 μM concentrations and CPPs at 100 μM concentration. […] The incubation with permeability markers in the presence of PN159 peptide lasted for 30 min. In case of CPPs the incubation time with fluorescein was 1-h. Samples were collected from both compartments and the concentrations of the marker molecules were determined by a fluorescence multi-well plate reader (Fluostar Optima; excitation wavelength: 485 nm, emission wavelength: 535 nm in the case of fluorescein and excitation wavelength: 584 nm, emission wavelength: 680 nm in the case of Evans-blue labeled albumin). Fluorescein isothiocyanate (FITC)-labelled dextran marker molecules (Table 1) were used at 1 mM concentrations, and fluorescence intensities of collected samples were measured using a Fluorolog FL3-22 (Horiba Jobin Yvon, Paris, France) spectrofluorometer using 492 nm excitation wavelength, 515 nm emission wavelength, and 0.5 s integration time. Drugs were used at 10 μM concentrations and samples were measured by HPLC as described below. The apparent permeability coefficients (Papp) were calculated as described previously. Briefly, cleared volume was calculated from the concentration difference of the tracer in the basal compartments (Δ[C]B) after 30 min and apical compartments at 0 h ([C]A), the volume of the basal compartment (VB; 1.5 mL) and the surface area available for permeability (A; 1.1 cm^2).
(§3) Analytical measurements were performed on a Merck-Hitachi LaChrom HPLC system equipped with an ultraviolet (UV) and fluorescence detector (Merck, Darmstadt, Germany). All reagents used were of analytical reagent grade. […] In both cases 10μL sample was injected into the chromatographic system.
(§4) The chromatographic column was maintained at 40 °C and the 5 μL sample was injected onto the column.
(§5) The column temperature was maintained at 40 °C and a 20 μL sample was injected onto the chromatographic system. […] UV detection was set at 228 nm.

In a further data set the test system is EpiAirway model. Conditions: airway epithelial tissue model, by PN159; cited from earlier work.
A further data set relates to Klebsiella pneumoniae. Also on record: method as in PMID 27617798. The settings on record: cited from earlier work.
Another data set concerns Caco-2 cells. Nature of the data set: Impedance measurement (RTCA), Caco-2 cells. Type of data set: cell-based. Conditions: CPPs 100 μM, 24-h monitoring. As to the method: Kinetics of epithelial cell reaction to PN159 peptide treatment was monitored by impedance measurement at 10 kHz (RTCA-SP instrument, ACEA Biosciences, San Diego, CA, USA). Impedance measurement is non-invasive, label-free and real time, and linearly correlates with adherence, growth, number and viability of cells. For background measurements 50 μL cell culture medium was added to the wells, then cells were seeded at a density of 6 × 10^3 cells/well to the coated 96-well plates with integrated gold electrodes (E-plate 96, ACEA Biosciences). Cells were cultured for 5–7 days in a CO2 incubator at 37 °C and monitored every 10 min until the end of experiments. Cells were treated with PN159 peptide solutions at 1, 3, 10, 30 and 100 μM concentrations at the beginning of the plateau phase of growth and the effects were followed for 1-h or 24 h. To measure cell recovery, peptide solutions were changed to culture medium and the impedance was monitored for one week. Culture medium was changed every 2 days. Caco-2 cells were also treated with the three selected CPPs, Pep-1, R8 and φ-peptide, at 100 μM concentrations at the beginning of the plateau phase of cell growth for 24-h. Triton X-100 detergent (1 mg/mL) was used as a reference compound to induce cell death. Cell index was defined as Rn-Rb at each time point of measurement, where Rn is the cell-electrode impedance of the well when it contains cells and Rb is the background impedance of the well with the medium alone.

For the next data set, the system named is Caco-2 cell layers. Kind of data set: Penetration of marker and drug molecules across Caco-2 cell layers (Papp A-B). Conditions: CPPs 100 μM, 1-h treatment. The protocol: as §2, §3, §4, §5

Consider `CO[C@@]1(NC(=O)Cc2cccs2)C(=O)N2C(C(=O)O)=C(COC(N)=O)CS[C@@H]21` [Cefoxitin, cefoxitin], for which the MIC in data set [1] is 3.5 µM; in data set [2], 6.9 µM; in data set [3], over 223 µM; in [4] it was 223 µM; in [5], over 223 µM; in [6], over 223 µM.
Consider `CNC(C)C1CCC(N)C(OC2C(N)CC(N)C(OC3OCC(C)(O)C(NC)C3O)C2O)O1` (stereo not drawn) [Gentamicin, gentamicin], for which the MIC in data set [1] is 0.6 µM; in [2], 1.1 µM; in [4], 0.6 µM; in data set [5] it was 1.1 µM; in data set [6], 2.3 µM.
Usually Papp A→B stands for how fast a substance crosses the layer from the apical side. Low readings indicate slow passage, high ones fast passage. Consider `CN/C(=N/CCSCc1nc[nH]c1C)NC#N` [cimetidine], for which the values for the Papp A→B at 30 min, 10 μM in “in vitro” (PN159 treated) and in the data set “in vitro” (control) were 345 ± 45 nm/s and 9 ± 2 nm/s, respectively.
`COc1ccc2c3c1O[C@H]1C[C@@H](O)C=C[C@@]31CCN(C)C2` [galantamine]: the Increase of permeability with EpiAirway model is reported as 2 to 3 fold.
Turning to melittin, in the data set with Klebsiella pneumoniae, the “Concentration needed for inhibition of growth” value is “more than 100 µM”.
Take `N=C(N)NCCC[C@H](NC(=O)[C@H](CCCNC(=N)N)NC(=O)[C@H](CCCNC(=N)N)NC(=O)[C@H](CCCNC(=N)N)NC(=O)[C@H](CCCNC(=N)N)NC(=O)[C@H](CCCNC(=N)N)NC(=O)[C@H](CCCNC(=N)N)NC(=O)[C@@H](N)CCCNC(=N)N)C(N)=O` [R8]: the “Cell impedance (normalized cell index)” value with Caco-2 cells was “decreased the cell impedance”.
Take “cyclo[CGGFWRRRRGE(εAca)G] (cyclo(CGGFWRRRRGE)-{εAca-Gly}) [φ-peptide]”: the “Permeability for fluorescein marker molecule” value in the data set on Caco-2 cell layers is “elevated permeability”. For the same compound, the “Cell impedance (normalized cell index)” value with Caco-2 cells is “decreased the cell impedance”.

(Values after publication PMC6410202, “Dual Action of the PN159/KLAL/MAP Peptide: Increase of Drug Penetration across Caco-2 Intestinal Barrier Model by Modulation of Tight Junctions and Plasma Membrane Permeability” (Pharmaceutics, 2019).)
